Reference: patent publication US20170143674A1, “Use of Glutaryl Histamine for the Treatment of Respiratory Tract Diseases” (LTD "VALENTA-INTELLEKT", priority 2011, published 2017)

Key:
[1] = system: acute respiratory distress syndrome (ARDS); assay: ARDS model, single intravenous LPS 7.5 mg/kg; type: in vivo, rat; conditions: for Me (%) (mortality rate): 8 days; for Died: total number 10
Experimental: Since an intravenous administration of lipopolysaccharide (LPS) to animals is one of the most acceptable models for studying the pathogenesis, pathomorphological changes and consequences of acute respiratory distress syndrome, this model was used in this example. Tested medicament glutaryl histamine was administered for 9 days after the first administration of LPS, i.e. glutaryl histamine was administered for 12 days in total (3 days before the induction of ARDS and 9 days during and after the induction). The exception was dexamethasone since, according to the literature data and the information leaflet, long-time administration of steroidal anti-inflammatory agents can cause severe side effects. For this reason, dexamethasone was administered according to the following schedule: 49, 24 and 1 hour before the induction of ARDS in a dose of 5 mg/kg, for 3 days after the first injection of LPS in the same dose; the medicament was withdrawn by a gradual dose reduction for 3 days. Thus, dexamethasone was administered 9 times.
The mortality rate among the animals administered LPS in an intravenous dose of 7.5 mg/kg was 70% for 8 days. The most of them (60%) died on the first day, in particular, from 4 to 12-16 hours after the injection of LPS. The mortality rate among the animals administered glutaryl histamine was different from the rate in animals treated with dexamethasone; however, most of them also died on the first day, about in the same time period (Table 11).

[2] = system: Staphylococcus aureus (mouse-adapted strain 10); assay: animal or person; type: in vivo, mice; conditions: for Mortality rate (%) / Survival rate (%): tenth day
Experimental: The tested medicament was glutaryl histamine in doses of 15, 30 and 45 mg/kg. Solutions of the tested medicament for oral administration were prepared ex tempore. Ampicillin (in intravenous administration) was used as a therapeutic preparation since this substance was the most experimentally studied antibiotic approved in clinical practice many years ago.
Staphylococcus aureus (mouse-adapted strain 10) was used as an infectious agent. Mice were infected intravenously.
Firstly, there was determined a lethal dose (LD100) of staphylococcus when intravenously administered to this line of mice with a certain weight. Fatal cases among mice were registered every day for ten days. The lethal dose was 3×10^8 CFU/mouse. […] For this purpose, mice were housed into cages (10 animals per cage) and infected with a lethal dose of staphylococcus. One hour later, each mouse was intravenously administered ampicillin in doses of 10, 20, 30, 40, and 50 mg/kg. A group of mice infected with a lethal dose of staphylococcus without the treatment was considered as a control group. Fatal cases among mice were registered every day for ten days.
The next step of the experiment was to study an effect of combined administration of glutaryl histamine with ampicillin on a model of staphylococcal sepsis in mice.
In the experiment, mice were housed in following groups (10 animals per cage):
Glutaryl histamine was administered orally in the corresponding doses to mice of groups 3, 4, 5, 6, 7, and 8 for 5 days. Five day after, all groups of mice were intravenously administered 0.2 ml of Staphylococcus aureus in the lethal dose. One hour after infection, mice of groups 2, 6, 7 and 8 were […] administered 0.2 ml of ampicillin in a dose of 20 mg/kg. After infection and administration of ampicillin, mice of groups 3-8 were administered glutaryl histamine for additional 5 days. During the experiment, the animals were observed every day, and fatal cases were registered.

Structure (SMILES): O=C(O)CCCC(=O)NCCc1c[nH]cn1 [glutaryl histamine]
- IP (%) (protective index) ([1]; Glutaryl histamine 0.5 mg/kg): 57.1%
- S (%) (survival rate) ([1]; Glutaryl histamine 0.5 mg/kg): 70%
- Me (%) (mortality rate) ([1]; Glutaryl histamine 0.5 mg/kg): 30%
- Died ([1]; Glutaryl histamine 0.5 mg/kg): 3
- IP (%) (protective index) ([1]; Glutaryl histamine 3 mg/kg): 28.6%
- S (%) (survival rate) ([1]; Glutaryl histamine 3 mg/kg): 50%
- Me (%) (mortality rate) ([1]; Glutaryl histamine 3 mg/kg): 50%
- Died ([1]; Glutaryl histamine 3 mg/kg): 5
- IP (%) (protective index) ([1]; Glutaryl histamine 9 mg/kg): 42.9%
- S (%) (survival rate) ([1]; Glutaryl histamine 9 mg/kg): 60%
- Me (%) (mortality rate) ([1]; Glutaryl histamine 9 mg/kg): 40%
- Died ([1]; Glutaryl histamine 9 mg/kg): 4
- IP (%) (protective index) ([1]; Glutaryl histamine 18 mg/kg): 28.6%
- S (%) (survival rate) ([1]; Glutaryl histamine 18 mg/kg): 50%
- Me (%) (mortality rate) ([1]; Glutaryl histamine 18 mg/kg): 50%
- Died ([1]; Glutaryl histamine 18 mg/kg): 5
- IP (%) (protective index) ([1]; Glutaryl histamine 27 mg/kg): 71.4%
- S (%) (survival rate) ([1]; Glutaryl histamine 27 mg/kg): 80%
- Me (%) (mortality rate) ([1]; Glutaryl histamine 27 mg/kg): 20%
- Died ([1]; Glutaryl histamine 27 mg/kg): 2
- IP (%) (protective index) ([1]; Glutaryl histamine 45 mg/kg): 28.6%
- S (%) (survival rate) ([1]; Glutaryl histamine 45 mg/kg): 50%
- Me (%) (mortality rate) ([1]; Glutaryl histamine 45 mg/kg): 50%
- Died ([1]; Glutaryl histamine 45 mg/kg): 5
- died/survived animals ([2]; day 1, glutaryl histamine 15 mg/kg): 0/10
- died/survived animals ([2]; day 1, glutaryl histamine 30 mg/kg): 0/10
- died/survived animals ([2]; day 1, glutaryl histamine 45 mg/kg): 0/10
- died/survived animals ([2]; day 2, glutaryl histamine 15 mg/kg): 0/10
- died/survived animals ([2]; day 2, glutaryl histamine 30 mg/kg): 0/10
- died/survived animals ([2]; day 2, glutaryl histamine 45 mg/kg): 0/10
- died/survived animals ([2]; day 3, glutaryl histamine 15 mg/kg): 0/10
- died/survived animals ([2]; day 3, glutaryl histamine 30 mg/kg): 0/10
- died/survived animals ([2]; day 3, glutaryl histamine 45 mg/kg): 1/9
- died/survived animals ([2]; day 4, glutaryl histamine 15 mg/kg): 1/9
- died/survived animals ([2]; day 4, glutaryl histamine 30 mg/kg): 1/9
- died/survived animals ([2]; day 4, glutaryl histamine 45 mg/kg): 1/9
- died/survived animals ([2]; day 5, glutaryl histamine 15 mg/kg): 2/8
- died/survived animals ([2]; day 5, glutaryl histamine 30 mg/kg): 2/8
- died/survived animals ([2]; day 5, glutaryl histamine 45 mg/kg): 3/7
- died/survived animals ([2]; day 6, glutaryl histamine 15 mg/kg): 4/6
- died/survived animals ([2]; day 6, glutaryl histamine 30 mg/kg): 3/7
- died/survived animals ([2]; day 6, glutaryl histamine 45 mg/kg): 4/6
- died/survived animals ([2]; day 7, glutaryl histamine 15 mg/kg): 5/5
- died/survived animals ([2]; day 7, glutaryl histamine 30 mg/kg): 4/6
- died/survived animals ([2]; day 7, glutaryl histamine 45 mg/kg): 5/5
- died/survived animals ([2]; day 8, glutaryl histamine 15 mg/kg): 6/4
- died/survived animals ([2]; day 8, glutaryl histamine 30 mg/kg): 6/4
- died/survived animals ([2]; day 8, glutaryl histamine 45 mg/kg): 6/4
- died/survived animals ([2]; day 9, glutaryl histamine 15 mg/kg): 6/4
- died/survived animals ([2]; day 9, glutaryl histamine 30 mg/kg): 7/3
- died/survived animals ([2]; day 9, glutaryl histamine 45 mg/kg): 7/3
- died/survived animals ([2]; day 10, glutaryl histamine 15 mg/kg): 7/3
- died/survived animals ([2]; day 10, glutaryl histamine 30 mg/kg): 7/3
- died/survived animals ([2]; day 10, glutaryl histamine 45 mg/kg): 8/2
- Mortality rate (%) ([2]; glutaryl histamine 15 mg/kg): 70%
- Survival rate (%) ([2]; glutaryl histamine 15 mg/kg): 30%
- Mortality rate (%) ([2]; glutaryl histamine 30 mg/kg): 70%
- Survival rate (%) ([2]; glutaryl histamine 30 mg/kg): 30%
- Mortality rate (%) ([2]; glutaryl histamine 45 mg/kg): 80%
- Survival rate (%) ([2]; glutaryl histamine 45 mg/kg): 20%

Structure (SMILES): CC1(C)S[C@@H]2[C@H](NC(=O)[C@H](N)c3ccccc3)C(=O)N2[C@H]1C(=O)O [ampicillin]
- ED50 ([2]; Staphylococcus aureus, iv, read-out: ED50 (50% effective dose)): 17.3 mg/kg
- Mortality rate (%) ([2]; ampicillin 20 mg/kg): 50%
- Survival rate (%) ([2]; ampicillin 20 mg/kg): 50%
- died/survived animals ([2]; day 1, ampicillin 20 mg/kg): 0/10
- died/survived animals ([2]; day 2, ampicillin 20 mg/kg): 0/10
- died/survived animals ([2]; day 3, ampicillin 20 mg/kg): 0/10
- died/survived animals ([2]; day 4, ampicillin 20 mg/kg): 1/9
- died/survived animals ([2]; day 5, ampicillin 20 mg/kg): 2/8
- died/survived animals ([2]; day 6, ampicillin 20 mg/kg): 3/7
- died/survived animals ([2]; day 7, ampicillin 20 mg/kg): 4/6
- died/survived animals ([2]; day 8, ampicillin 20 mg/kg): 4/6
- died/survived animals ([2]; day 9, ampicillin 20 mg/kg): 5/5
- died/survived animals ([2]; day 10, ampicillin 20 mg/kg): 5/5
